According to US10197557B2, “Small molecules for endothelial cell activation” (The Regents of the University of California, priority 2011, dated 2019):
“Also recorded” adds a separate entry of the source.

Legend:
human endothelial cells = assay: EC-PBMC co-culture assay, chemokines quantified by cytometric bead arrays; format: cell-based; conditions: for EC activation of octahydro-1,6-naphthyridin-4-one analogs (percent induction relative to IFNγ): focused library of 96 analogs, initial test (FIG. 6A, 6B)
Protocol: FIGS. 9A-9C show a further embodiment of the invention biological platform for the detection of activated endothelium. (A) Primary endothelial cells were seeded to confluence in a 96 well format and activated by IFNγ (10 ng/ml). After 5 hours, IFNγ was removed, wells were washed, and then primary human peripheral blood mononuclear cells (PBMC) were added at a ratio of 3:1 (PBMC:EC). 20-24 hours later, supernatants were removed and chemokines were quantified by cytometric bead arrays. (B) MIP1β production, but not MIP1α or IL8 levels, reliably detects endothelium activated by IFNγ. Chemokines produced in co-culture conditions with quiescent vs. activated EC; data represent the results from n=7 (MIP1α and MIP1β) and n=6 (IL8) independent experiments. (C) Chemical library screen for compounds that activate human endothelium. A 642 compound library was added following the same method as in A and B. Controls included DMSO and IFNγ on each plate. Supernatants were measured for chemokines by cytometric bead arrays.
Activation of the endothelium is intricately linked to innate immunity. […] Therefore we hypothesized that compounds that “activate” the endothelium could be identified indirectly—endothelium encountering activating compounds would gain the capacity to trigger chemokine production by monocytes. To test this hypothesis, we designed an EC-monocyte co-culture system amenable to high-throughput compound screening (FIG. 9A). […] Subsequently, EC were treated with DMSO (vehicle control), IFNγ (EC-activation control), and a collection of 642 compounds (final concentration, […]) (FIG. 9C). Of the 642 compounds, 37 (5.8%) promoted MIP1β production (FIG. 5A).
HUVEC were grown to 80-90% confluency in T150 flasks (Corning). On the day of experiments, HUVEC were harvested and plated at a confluent density in 96 well plates; these were either half or full volume plates, requiring 2.5-5×10^4 EC per well, respectively, in complete EBM-2 media (Lonza). After adherence for 2-3 hours, IFNγ (10 ng/ml), DMSO, or compound library (final concentration, […]) was added in incomplete EBM-2 media (Lonza). After 5 hours, stimuli were removed and cells were gently washed twice with RPMI (Invitrogen), followed by addition of 7.5-10×10^4 human PBMC in 10% FCS. For cytokine analysis, […] was removed at 24 hours for CBA analysis. The biological effects observed were not attributable to either LPS contamination, nor to cellular toxicity, as determined by flow cytometric analysis and 3-(4,5-dimethylhiazol-2-yl)-2,5-diphenyl tetrazolium bromide (MTT) assay.
[…] of supernatant from EC alone, PBMC alone, or co-culture conditions was collected for CBA analysis for IL8, MIP1α, and MIP1β. CBA was performed as per the manufacturer's recommendations (Becton Dickinson). Standard curves and all samples were acquired on a FacsCalibur flow cytometer and data was analyzed using FloJo software.

HUVEC = assay: Transcriptome profiling (microarray) of treated EC, Ingenuity Pathway Analysis; format: cell-based, human; conditions: 10 μM, 5 hours; for gene probes induced in comparison to vehicle control: fold change >1.25, p-value <0.05
Protocol: HUVEC were grown as described above, and then plated at 1×10^6 in 6 well plates in complete EBM-2. […] After 5 hours, media was removed and RNA was extracted using Trizol (Invitrogen), followed by RNeasy Minelut Cleanup Kit (Qiagen). RNA was taken to the UCLA Microarray Core Center where it was processed using the Human Genome Affymetrix U133 Plus 2.0 Array. Microarray data was analyzed using dChip software (version Nov. 18, 2007) from the Cheng Li Lab at http://biosun1.harvard.edu/complab/dchip. For statistical analysis using dChip software, only gene probes that were minimally present in two of the three replicates were used, and parameters for significance were set at fold change >1.25, p-value <0.05. Total number of probes present for active analogue (D10): 30,228. […] Unsupervised dendrograms were created using dChip software. Genes with known function in immune regulation were selected based on published databases and gene functions identified by Gene Ontology or OMIM; dendrogram was created using dChip software.
Experimental results were compared using student t-tests; results were considered significant if p-value was <0.05. Canonical network analysis for all expressed probes in D10 and E2 datasets was performed by using Ingenuity Pathway Analysis software (version 6.0; Ingenuity Systems).

E-selectin = E-selectin expression on EC by flow cytometric analysis; format: cell-based, human; conditions: in comparison to vehicle control (FIG. 8C)
Protocol: (§1) HUVEC were stimulated with IFNγ, DMSO, or compounds of interest (10 μM) for 5 hours. Stimuli were removed and cells were gently washed and media was replaced with 10% FCS for 24 hours. Cells were stained with anti-ICAM1 and anti-E-selectin, or appropriate isotype antibodies. For intracellular chemokine staining, stimulations of HUVEC were carried out as mentioned above with IFNγ, DMSO and compound of interest. After 8 hours of PBMC and HUVEC co-culture incubation, Golgi Plug (Becton Dickinson) was added to the culture and incubation carried out for an additional 16 hours. After the incubation cells were fixed, permeabilized and stained with anti-CD14 and anti-MIP1b or appropriate isotype controls. Samples were then analyzed with a FacsCalibur flow cytometer and subsequent data analysis was performed using FloJo software.

MIP1β = assay: Intracellular flow cytometry of EC-PBMC co-cultures (CD14, MIP1β); format: cell-based, human; conditions: PBMC added to activated EC (FIG. 5D)
Protocol: as §1

Compound	EC activation of octahydro-1,6-naphthyridin-4-one analogs (percent induction relative to IFNγ) (human endothelial cells)	other results
Cc1ccc([C@@H]2C[C@H]3[C@@H](CN2S(=O)(=O)c2ccccc2)C(=O)C[C@@H](c2ccccc2)N3S(=O)(=O)c2ccc(C)cc2)cc1 [C8]	active	
CCOc1cc(-c2ccccc2)nc2c1CN(S(=O)(=O)c1ccc(C)cc1)[C@H](c1cccc(Cl)c1)C2 [G9]	inactive	
CCc1ccc([C@@H]2C[C@H]3[C@@H](CN2S(=O)(=O)c2ccc(C)cc2)C(=O)C[C@@H](c2ccc(Cl)cc2)N3S(=O)(=O)c2ccc(C)cc2)cc1 [D11]	active	
Cc1ccc([C@@H]2C[C@H]3[C@@H](CN2S(=O)(=O)c2ccc(C)cc2)C(=O)C[C@@H](c2ccc(C)cc2)N3S(=O)(=O)c2ccc(C)cc2)cc1 [D6]	active	
COc1ccc([C@@H]2CC(=O)[C@@H]3CN(S(=O)(=O)c4ccc(C)cc4)[C@H](c4ccccc4F)C[C@@H]3N2S(=O)(=O)c2ccccc2)cc1 [E8]	did not exhibit EC-activation; also recorded: inactive	
COc1ccc([C@@H]2C[C@H]3[C@@H](CN2S(=O)(=O)c2ccccc2)C(=O)C[C@@H](c2ccc(C)cc2)N3S(=O)(=O)c2ccc(C)cc2)cc1 [C9]	active	
Cc1ccc(S(=O)(=O)N2C[C@H]3C(=O)C[C@@H](c4ccccc4)N(S(C)(=O)=O)[C@H]3C[C@H]2c2ccccc2)cc1 [H11]	lost their activity; also recorded: inactive	
CCO[C@H]1C[C@@H](c2ccccc2)N(S(=O)(=O)c2ccc(C)cc2)[C@H]2C[C@@H](c3cccc(Cl)c3)N(S(=O)(=O)c3ccc(C)cc3)C[C@@H]12 [2B7]	active	
Cc1ccc(S(=O)(=O)N2C[C@H]3C(=O)C[C@@H](c4ccccc4)N(S(=O)(=O)c4ccc(C)cc4)[C@H]3C[C@H]2c2ccccc2F)cc1 [E3]	active	
CCc1ccc([C@@H]2C[C@H]3[C@@H](CN2S(=O)(=O)c2ccc(C)cc2)C(=O)C[C@@H](c2ccc(OC)cc2)N3S(=O)(=O)c2ccccc2)cc1 [E2]	some activity; also recorded: inactive	EC activation, confirmatory studies (human endothelial cells; validation of analogs, FIG. 6C, two independent experiments in triplicate wells): relatively inactive; gene probes induced in comparison to vehicle control (HUVEC; EC): 49 gene probes; networks related to immune regulation activated (HUVEC; induced genes of EC): did not activate any networks related to immune regulation
Cc1ccc(S(=O)(=O)N2CC[C@H]3[C@@H](C2)C(=O)C[C@@H](c2ccccc2)N3S(=O)(=O)c2ccc(C)cc2)cc1 [H6]	did not affect the naphthyridinone's EC-activation; also recorded: active	
CCc1ccc([C@@H]2C[C@H]3[C@@H](CN2S(=O)(=O)c2ccc(C)cc2)C(=O)C[C@@H](c2ccc(CC)cc2)N3S(=O)(=O)c2ccc(C)cc2)cc1 [D10]	active	gene probes induced in comparison to vehicle control (HUVEC; EC): 201 gene probes; canonical pathways engaged (Ingenuity Pathway Analysis) (HUVEC; induced genes of EC): 32 canonical pathways; E-selectin gene induction (HUVEC; microarray, EC): uniquely induced; E-selectin expression levels (protein) (E-selectin): markedly enhanced
COc1ccc([C@@H]2CC(=O)[C@@H]3CN(S(=O)(=O)c4ccc(C)cc4)[C@H](c4ccccc4)C[C@@H]3N2S(=O)(=O)c2ccccc2)cc1 [D5]	did not exhibit EC-activation; also recorded: inactive	
COc1ccc([C@@H]2CC(=O)[C@@H]3CN(S(=O)(=O)c4ccc(C)cc4)[C@H](c4ccc(C)cc4)C[C@@H]3N2S(=O)(=O)c2ccccc2)cc1 [D9]	did not exhibit EC-activation; also recorded: inactive	
interferon gamma [IFNγ]		MIP1α production in co-culture (human endothelial cells; treated EC co-cultured with PBMC (FIG. 10B)): comparable levels; IL8 production from monocytes in co-culture (human endothelial cells; treated EC co-cultured with PBMC, in comparison to DMSO (FIG. 10A)): inhibited; dominant producers of MIP1β in co-culture (MIP1β): CD14+ monocytes
COc1ccc([C@@H]2C[C@H]3[C@@H](CN2S(=O)(=O)c2ccccc2)C(=O)C[C@@H](c2ccc(OC)cc2)N3S(=O)(=O)c2ccccc2)cc1 [F10]	did not exhibit EC-activation; also recorded: inactive	
COc1ccc([C@@H]2CC(=O)[C@@H]3CN(S(=O)(=O)c4ccc(Cl)cc4)[C@H](c4ccc(C)cc4)C[C@@H]3N2S(=O)(=O)c2ccccc2)cc1 [F7]	did not exhibit EC-activation; also recorded: inactive	
Cc1ccc(S(=O)(=O)N2C[C@H]3[C@@H](O)C[C@@H](c4ccccc4)N(S(=O)(=O)c4ccc(C)cc4)[C@H]3C[C@H]2c2cccc(Cl)c2)cc1 [2B6]	active	
Cc1ccc(S(=O)(=O)N2[C@H](c3ccccc3)CC(=O)[C@@H]3CN(S(C)(=O)=O)[C@H](c4ccccc4)C[C@@H]32)cc1 [2B2]	lost their activity; also recorded: inactive	
